Results taken from US20020018997A1, “Biomolecular toxicity assay” (priority 2000, published 2002).

What was measured:
[1] = test system: Beef Heart Mitochondria; conditions: cited from earlier work
[2] = test system: actin-cofilin complex; assay: Native PAGE gel analysis of actin-cofilin complex; format: binding; conditions: for Effective (E50) concentration, disappearance of the actin-cofilin band: native PAGE gels, 25 μM actin-cofilin complex, metal mass without counter ions
Description: Four heavy metal ions (Cd, Cu, Hg and Zn) were examined over the concentration range 1-1000 μg L^−1.
Combinations of actin, cofilin and DNaseI were mixed at equimolar concentrations (˜20-25 μm) in a Eppendorf tube and incubated for 15 min at 22° C. Actin, cofilin, DNaseI and their complexes were then separated on a 10% w/v native gel. […] Instead, the rate of migration is determined by the ratio of charge to volume. Actin (MT 43 kDa) has a net negative charge.

[3] = test system: Photobacterium phosphoreum; conditions: cited from earlier work
[4] = test system: Fish; conditions: at 96 hr; cited from earlier work
[5] = test system: Sub-mitochondrial Particle (SMP); conditions: cited from earlier work
[6] = test system: DNA/EtBr complex; assay: DNA/EtBr fluorescence emission in solution; format: binding; conditions: 5 μg/ml DNA, 2 μg/ml EtBr
Description: The fluorescence emission of DNA-dye ligands such as ethidium bromide (EtBr) are examined spectroscopically in solution.
Changes in fluorescence intensity were noticeable at 2 μM.

For `[Cd+2]` [Cd^2+], the “Effective (E50) concentration, BHM” value [1] is listed as 158 µg/L, the “Effective (E50) concentration, disappearance of the actin-cofilin band” value (“Effective … of the actin-cofilin band” below) [2] is listed as 800 to 1200 µg/L and the “Microtox mean lethal concentration” value [3] is listed as 41400 µg/L. The “Effective (E50) concentration, Fish” value [4] was 630 µg/L and the “Effective (E50) concentration, SMP” value [5] was 520 µg/L.
For `[Cu+2]` [Cu^2+], the “Effective (E50) concentration, BHM” value [1] is listed as 93 µg/L, the “Effective … of the actin-cofilin band” value [2] is listed as 400 to 600 µg/L and the “Concentration at which the actin-cofilin complex is first noticeably affected” value ([2]; native gel) is listed as “approximately 200 μg L^−1”. For the same compound, the “Microtox mean lethal concentration” value [3] was 9300 µg/L, the “Effective (E50) concentration, Fish” value [4] was 530 µg/L and the “Effective (E50) concentration, SMP” value [5] was 300 µg/L.
In the case of `[Cl][Hg][Cl]` [HgCl2], the “Concentration at which changes in fluorescence intensity were noticeable” value [6] is reported as 2 µM and the “Concentration range of concentration-dependent quenching of fluorescent signal” value ([6]; excitation 520 nm) is reported as 1 to 100 µM.
For `[Cl-].[Cl-].[Zn+2]` [Zn^2+, ZnCl2], the “Effective (E50) concentration, BHM” value [1] is given as 80 µg/L, the “Density of the actin-cofilin complex” value ([2]; 250-2500 μg L^−1) is given as “decreased the density of the actin-cofilin complex” and the “Effective … of the actin-cofilin band” value [2] is given as 900 to 1000 µg/L. The “Microtox mean lethal concentration” value [3] was 33000 µg/L, the “Effective (E50) concentration, Fish” value [4] was 2990 µg/L and the “Effective (E50) concentration, SMP” value [5] was 1700 µg/L.
